Measured values: patent publication US20240408004A1, “COMPOSITIONS, DEVICES, AND METHODS FOR THE TREATMENT OF OVERDOSE AND REWARD-BASED DISORDERS” (priority 2018, published 2024)
Values after ≈ are worked out from the molar mass of the structure shown.

What was measured:
[1] = Safety assessments of Example 4 study (adverse events, nasal irritation, vital signs, ECG); assay type: in vivo, human
Description: Sudy Goals. […] Secondary endpoints included adverse events (AEs), vital signs (heart rate, sitting blood pressure, and respiration rate), electrocardiogram (ECG), clinical laboratory changes and nasal irritation using the nasal irritation scale.
On dosing days, the order of assessments were ECG, vital signs, then PK blood collection when scheduled at the same nominal times. The target time of the PK blood collection was considered the most critical and if the collection was more than ±1 minute from the scheduled time for the first 60 minutes of collections or more than ±5 minutes for the scheduled time points thereafter, this was considered a protocol deviation. ECG and vital signs were collected within the 10 minute period before the nominal time of blood collections. At screening, admission, and discharge, ECG, and vital signs were checked once per day. […] Clinical laboratory measurements were repeated after the last PK blood draw prior to clinic discharge. AEs were assessed by spontaneous reports by subjects, by examination of the nasal mucosa, by measuring vital signs, ECG, and clinical laboratory parameters.
Safety Assessments. […] ECG and vital signs was performed within the 10 minute period before the nominal time for post-dose blood collections. AEs were recorded from the start of study drug administration until clinic discharge.

[2] = Intranasal naltrexone formulation experiments (solubility, crystallization, discoloration, osmolality); assay type: physicochemical
Description: A series of experiments were performed to identify formulations of naltrexone which would make pharmaceutically appropriate intranasal products as disclosed herein.
A range of formulations were tested with the following observations. […] Several preparations were made at 30 mg/mL thereafter, which additionally contained fixed amounts of (dodecyl maltoside 0.25%) and NaCl (about 0.74%), and varying amounts of preservative (benzalkonium chloride, 0-0.02%) and stabilizing agent (EDTA, 0-0.3%). Crystallization behavior and discoloration were visually monitored. All of these formulations developed crystals when stored under refrigerated conditions. […] The 0.3% EDTA formulation appeared to resist yellowing for the longest period of time. Thereafter, a range of co-solvents were assessed for their potential to reduce crystallization of drug out of solution. Polyethylene glycol (PEG), propylene glycol, and benzyl alcohol were tested.

rabbit eye = details: concentrations of 25%; cited from earlier work
[3] = cited from earlier work
[4] = intranasal formulation with […] dodecyl maltoside

O=C1CC[C@@]2(O)[C@H]3Cc4ccc(O)c5c4[C@@]2(CCN3CC2CC2)[C@H]1O5 [naltrexone, 17-(cyclopropylmethyl)-4,5α-epoxy-3,14-dihydroxymorphinan-6-one]
subjects with dizziness ([1]; 5 subjects, regardless of severity or attribution): 36%
subjects with AEs of the Nervous System Disorders SOC ([1]; 7 subjects): 50%
subjects who experienced at least one AE ([1]; 10 of 14 subjects, any dosing period, any relationship to drug): 71%
discontinuation from the study due to AEs ([1]; hypertension, syncope, out-of-range pre-dose vital signs): Three subjects were discontinued
severe AEs ([1]; in vivo): No severe AEs were observed
appearance of 50 mg/mL preparation ([2]; room temperature, indicating incomplete dissolution): cloudy
solubility ([2]; thermodynamic from solid, ambient temperature, read-out: solubility limit in solution): ~40 mg/mL (≈ 117 mM)

CCCCCCCCCCCCO[C@@H]1O[C@H](CO)[C@@H](O[C@H]2O[C@H](CO)[C@@H](O)[C@H](O)[C@H]2O)[C@H](O)[C@H]1O [Intravail®, 1-O-n-dodecyl-β-D-maltopyranoside]
irritation in the rabbit eye model (rabbit eye): non-irritating

CNS(=O)(=O)Cc1ccc2[nH]cc(CCN(C)C)c2c1 [sumatriptan]
increase of total exposure (AUC) ([3]; intranasal formulation with […] dodecyl maltoside vs Imitrex nasal spray): 32%
Tmax [3, 4]: 8 to 10 min
increase of maximum plasma concentration in comparison to Imitrex nasal spray [3, 4]: almost four-fold
